The supplement of paper PMC5908809

How the values were obtained:
[1] = tested on: normal NK cells expanded with K562-aAPC; assay: percent inhibition of viability; higher = more inhibition; conditions: 72 h, IL-2 2.5 ng/mL
Experimental: (§1)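 Drug sensitivity and resistance testing on K562-aAPC-expanded normal NK cells: 5 concentrations (10-fold steps over a 10,000-fold range), 72 h at 37 °C, viability by CellTiter-Glo normalised to DMSO and benzethonium chloride controls; DSS from the fitted curve.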

[2] = tested on: DERL-7 (IL-2 2.5 ng/mL); assay: as above; conditions: 72 h
[3] = tested on: IMC-1 (IL-2 20 ng/mL); assay: as above; conditions: 72 h
[4] = tested on: KAI3 (IL-2 2.5 ng/mL); assay: as above; conditions: 72 h
[5] = tested on: KHYG-1 (IL-2 2.5 ng/mL); assay: as above; conditions: 72 h
[6] = tested on: NK-92 (IL-2 2.5 ng/mL); assay: as above; conditions: 72 h
[7] = tested on: NK-YS (IL-2 2.5 ng/mL); assay: as above; conditions: 72 h
[8] = tested on: NKL (IL-2 2.5 ng/mL); assay: as above; conditions: 72 h
[9] = tested on: SNK-6 (IL-2 2.5 ng/mL); assay: as above; conditions: 72 h
[10] = tested on: YT (IL-2 2.5 ng/mL); assay: as above; conditions: 72 h
[11] = tested on: normal primary NK cells, pool 1 (3 donors) (IL-2 2.5 ng/mL); assay: as above; conditions: 72 h
[12] = tested on: normal primary NK cells, pool 1 (3 donors), resting (IL-2 0 ng/mL); assay: as above; conditions: 72 h
[13] = tested on: normal primary NK cells, pool 2 (3 donors) (IL-2 2.5 ng/mL); assay: as above; conditions: 72 h
[14] = tested on: normal primary NK cells, pool 3 (3 donors) (IL-2 2.5 ng/mL); assay: as above; conditions: 72 h
[15] = tested on: normal NK cells expanded with K562-aAPC; assay: drug sensitivity score (DSS) (DSS units); higher = more sensitive; extreme values may be limits of the assay; conditions: 72 h; IL-2 2.5 ng/mL
Experimental: as §1

[16] = tested on: DERL-7 (IL-2 2.5 ng/mL); assay: as above; conditions: 72 h
[17] = tested on: IMC-1 (IL-2 20 ng/mL); assay: as above; conditions: 72 h
[18] = tested on: KAI3 (IL-2 2.5 ng/mL); assay: as above; conditions: 72 h
[19] = tested on: KHYG-1 (IL-2 2.5 ng/mL); assay: as above; conditions: 72 h
[20] = tested on: NK-92 (IL-2 2.5 ng/mL); assay: as above; conditions: 72 h
[21] = tested on: NK-YS (IL-2 2.5 ng/mL); assay: as above; conditions: 72 h
[22] = tested on: NKL (IL-2 2.5 ng/mL); assay: as above; conditions: 72 h
[23] = tested on: SNK-6 (IL-2 2.5 ng/mL); assay: as above; conditions: 72 h
[24] = tested on: YT (IL-2 2.5 ng/mL); assay: as above; conditions: 72 h
[25] = tested on: normal primary NK cells, pool 1 (3 donors) (IL-2 2.5 ng/mL); assay: as above; conditions: 72 h
[26] = tested on: normal primary NK cells, pool 1 (3 donors), resting (IL-2 0 ng/mL); assay: as above; conditions: 72 h
[27] = tested on: normal primary NK cells, pool 2 (3 donors) (IL-2 2.5 ng/mL); assay: as above; conditions: 72 h
[28] = tested on: normal primary NK cells, pool 3 (3 donors) (IL-2 2.5 ng/mL); assay: as above; conditions: 72 h

CS(=O)(=O)N1CCN(Cc2cc3nc(-c4cccc5[nH]ncc45)nc(N4CCOCC4)c3s2)CC1 [Pictilisib] (max concentration tested 10000 nM)
percent inhibition of viability [%]
Conditions	1 nM	10 nM	100 nM	1000 nM	10000 nM
[1]	2.02	0.78	10.8	25.4	51.1
[2]	0.8	4.11	16.1	57.5	87.1
[3]	-6.08	-5.88	-14.1	-27.2	-37
[4]	-6.58	2.21	8.79	17.4	52.6
[5]	-3.48	-3.66	-5.51	9.17	62.5
[6]	4.34	0.31	30.3	36.6	73.9
[7]	0.04	3.57	4.67	27.4	64.3
[8]	-16	-14.4	-0.35	45.4	73.1
[9]	9.42	16.7	-3.54	3.83	42
[10]	-3.11	-1.03	5.07	24.7	62
[11]	-12	-5.63	1.66	32.2	72.9
[12]	-0.3	-14.8	0.53	45.2	63.4
[13]	-12.1	3.86	0.41	8.6	55.1
[14]	-9.78	-13.3	-0.72	3.18	37.3

Conditions	drug sensitivity score
[15]	5.88
[16]	12.9
[17]	0
[18]	4.66
[19]	4.95
[20]	11
[21]	6.66
[22]	9.46
[23]	2.73
[24]	6.22
[25]	8.06
[26]	8.8
[27]	4.41
[28]	2.3

CCCc1cc(C)[nH]c(=O)c1CNC(=O)c1cc(-c2ccnc(N3CCN(C)CC3)c2)cc2c1cnn2C(C)C [GSK343] (max concentration tested 10000 nM)
percent inhibition of viability [%]
Conditions	1 nM	10 nM	100 nM	1000 nM	10000 nM
[1]	-1.65	-5.79	-7.46	-5.85	99.2
[2]	3.94	-4.82	3.13	8.76	96.6
[3]	-6.79	-3.69	-6.5	-9.82	99.4
[4]	-6.07	-1.68	-2.65	8.26	99.1
[5]	0.04	1.72	-6.82	3.86	99.8
[6]	-15.4	-9.54	-9.12	-0.4	98.1
[7]	-5.74	-3.63	-4.33	4.65	101
[8]	-9.45	-14.8	-10.7	-3.16	99.2
[9]	-12.3	5.94	-7.63	-6.91	99.4
[10]	-0.53	-1.05	-6.88	3.69	99
[11]	2.11	-6.04	-3.32	7.91	93.1
[12]	-0.38	-4.24	-14.9	10.5	92.6
[13]	-8.31	-4.46	-6.41	-0.99	-0.1
[14]	-4.17	-3.24	-2	-6.83	59.2

Conditions	drug sensitivity score
[15]	5.07
[16]	6.76
[17]	4.86
[18]	6.8
[19]	6.07
[20]	5.45
[21]	6.26
[22]	5.27
[23]	5.02
[24]	6
[25]	6.41
[26]	6.86
[27]	0
[28]	2.74
